Test results as given in article PMC2248166, “Quantitative peptide binding motifs for 19 human and mouse MHC class I molecules derived using positional scanning combinatorial peptide libraries” (Immunome Research, 2008).

Columns and labels:
Type in all cases: binding
H-2 K^d = H-2 K^d (Mus musculus, UniProt P01902)
HLA B*1501 = HLA B*1501 (Homo sapiens, UniProt P01889, A329T/A93T/A95T/C349S/D201E/D98Y/E187L/E204Q/E69M/E70A/K202T/N87E/Q94N/R155S/R180W/S121R/S35A/S48A/V306I/V36M/Y140S/Y91S); test: biochemical
HLA B*1503 = HLA B*1503 (Homo sapiens, UniProt P01889, A329T/A93T/A95T/C349S/D201E/D98Y/E187L/E204Q/K202T/N87E/Q94N/R155S/R180L/S121R/S35A/V306I/V36M/Y140S/Y91S); test: biochemical
HLA B*5401 = HLA B*5401 (Homo sapiens, UniProt P01889, A329T/C349S/D138N/D201E/E176V/E187T/E204Q/E69G/I76V/K202T/L119W/R155S/R180L/S121T/S35A/S48A/V127L/V306I/V36M/Y140L)
H-2 D^d = H-2 D^d (Mus musculus, UniProt P01900)
H-2 D^b = H-2 D^b (Mus musculus, UniProt P01899)
HLA B*0801 = HLA B*0801 (Homo sapiens, UniProt P01889, A93T/A95T/D138N/E176V/E187T/K202T/Q94N/R180D/S35A/V36M/Y33D/Y91F); test: biochemical
H-2 K^k = H-2 K^k (Mus musculus, UniProt P04223)
HLA B*5801 = HLA B*5801 (Homo sapiens, UniProt P01889, A329T/C349S/D201E/D98Y/E176V/E187L/E204Q/E69T/G107R/I218V/I90N/K202T/L105A/L119I/N104I/N87E/Q89R/Q94S/R106L/R155S/R180L/R86G/S101N/S121R/S35A/S48A/T118I/V127L/V306I/V36M/Y140S/Y91M)
HLA B*5802 = HLA B*5802 (Homo sapiens, UniProt P01889, A329T/C349S/D201E/D98Y/E176V/E187L/E204Q/E69T/G107R/I218V/I90N/K202T/L105A/N104I/N87E/Q89R/Q94S/R106L/R155S/R180L/R86G/S101N/S121W/S35A/S48A/V127L/V306I/V36M/Y140S/Y91M)
HLA A*3001 = HLA A*3001 (Homo sapiens, UniProt P04439, D140H/D185E/E176W/F33S/G80R/H175R/K168Q/R138E/R41S); test: biochemical
HLA B*5301 = HLA B*5301 (Homo sapiens, UniProt P01889, A329T/A93T/A95T/C349S/D201E/D98Y/E176V/E187L/E204Q/E69T/G107R/I218V/K202T/L105A/L119I/N104I/Q94N/R106L/R155S/R180L/S101N/S121R/S35A/S48A/T118I/V127L/V306I/V36M/Y140S/Y91F)
HLA B*5101 = HLA B*5101 (Homo sapiens, UniProt P01889, A329T/A93T/A95T/C349S/D138N/D201E/D98Y/E187L/E204Q/E69T/G107R/I218V/K202T/L105A/L119W/N104I/Q94N/R106L/R155S/R180L/S101N/S121T/S35A/S48A/V306I/V36M/Y195H/Y91F)
HLA A*6802 = HLA A*6802 (Homo sapiens, UniProt P04439, A269V/D140Y/D185E/E176V/E277Q/E87N/F33Y/G231S/I121R/I166T/I218V/L180W/L300P/L318F/N151K/P208A/P217A/Q86R/R138H/R169H/S129P/T345S/V36M)
HLA B*3501 = HLA B*3501 (Homo sapiens, UniProt P01889, A329T/A93T/A95T/C349S/D201E/D98Y/E176V/E187L/E204Q/E69T/I218V/K202T/L119I/Q94N/R155S/R180L/S121R/S35A/S48A/T118I/V127L/V306I/V36M/Y140S/Y91F)
HLA A*3201 = HLA A*3201 (Homo sapiens, UniProt P04439, A270S/D101S/D185E/E176V/E277Q/F133L/G103R/G107R/G231S/H175R/I121M/I218V/I322F/K168Q/L105A/L300P/L318F/M331R/P208A/P217A/Q94H/R106L/R138Q/S129P/T104I/T323A/T345S/V100E/V321M/V358M); test: biochemical

Chain of H-2 D^b (P01887 21-119): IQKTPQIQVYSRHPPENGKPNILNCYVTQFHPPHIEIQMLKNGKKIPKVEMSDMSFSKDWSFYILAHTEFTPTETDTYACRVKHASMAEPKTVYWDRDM
Chain of H-2 D^b (P01899 25-362): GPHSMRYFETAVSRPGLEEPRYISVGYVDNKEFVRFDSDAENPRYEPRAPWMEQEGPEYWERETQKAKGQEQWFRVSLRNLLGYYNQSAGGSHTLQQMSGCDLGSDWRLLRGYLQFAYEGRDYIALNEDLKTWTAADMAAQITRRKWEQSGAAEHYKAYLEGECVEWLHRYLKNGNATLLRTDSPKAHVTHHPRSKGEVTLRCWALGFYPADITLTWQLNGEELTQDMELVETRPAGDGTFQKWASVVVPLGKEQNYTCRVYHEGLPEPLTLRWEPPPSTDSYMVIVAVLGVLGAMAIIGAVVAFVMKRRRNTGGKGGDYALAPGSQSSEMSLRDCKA
Chain of H-2 K^k (P01887 21-119): as the sequence (P01887 21-119) above
Chain of H-2 K^k (P04223 22-369): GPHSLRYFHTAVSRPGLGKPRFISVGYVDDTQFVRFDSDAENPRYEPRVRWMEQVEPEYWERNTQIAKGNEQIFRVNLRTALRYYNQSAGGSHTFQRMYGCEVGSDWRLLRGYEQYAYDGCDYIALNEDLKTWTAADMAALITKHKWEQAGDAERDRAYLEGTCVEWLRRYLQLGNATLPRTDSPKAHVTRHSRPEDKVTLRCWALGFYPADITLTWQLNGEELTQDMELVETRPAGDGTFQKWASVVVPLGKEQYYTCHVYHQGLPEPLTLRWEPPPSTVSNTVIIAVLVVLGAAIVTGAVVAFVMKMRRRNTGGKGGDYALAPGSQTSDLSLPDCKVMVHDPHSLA
Chain of H-2 K^d (P01887 21-119): as the sequence (P01887 21-119) above
Chain of H-2 K^d (P01902 22-368): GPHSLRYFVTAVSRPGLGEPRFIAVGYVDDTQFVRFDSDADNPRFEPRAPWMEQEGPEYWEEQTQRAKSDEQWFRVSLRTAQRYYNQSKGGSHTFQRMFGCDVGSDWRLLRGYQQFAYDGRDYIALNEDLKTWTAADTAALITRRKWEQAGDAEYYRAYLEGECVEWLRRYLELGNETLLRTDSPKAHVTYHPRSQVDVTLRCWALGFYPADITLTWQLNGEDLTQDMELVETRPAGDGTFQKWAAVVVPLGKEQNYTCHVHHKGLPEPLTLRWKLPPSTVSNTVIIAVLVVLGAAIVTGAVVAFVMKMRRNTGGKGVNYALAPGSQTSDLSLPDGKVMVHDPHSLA
Chain of H-2 D^d (P01900 whole entry, looked up): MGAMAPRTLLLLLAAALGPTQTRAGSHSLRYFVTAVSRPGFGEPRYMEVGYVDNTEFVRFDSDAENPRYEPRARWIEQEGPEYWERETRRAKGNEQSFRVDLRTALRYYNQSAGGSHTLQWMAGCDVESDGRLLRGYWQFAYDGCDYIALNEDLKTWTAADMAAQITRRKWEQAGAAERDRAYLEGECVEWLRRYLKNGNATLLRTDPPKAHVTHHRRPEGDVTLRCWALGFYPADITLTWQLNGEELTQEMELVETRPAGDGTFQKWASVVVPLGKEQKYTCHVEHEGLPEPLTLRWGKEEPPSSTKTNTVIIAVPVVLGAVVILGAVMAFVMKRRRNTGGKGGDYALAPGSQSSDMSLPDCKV

Sequence | Normalized average relative binding affinity(ARB) (H-2 K^d) | Normalized average relative binding affinity(ARB) (HLA B*1501) | Normalized average relative binding affinity(ARB) (HLA B*1503) | Normalized average relative binding affinity(ARB) (HLA B*5401) | Normalized average relative binding affinity(ARB) (H-2 D^d) | Normalized average relative binding affinity(ARB) (H-2 D^b) | Normalized average relative binding affinity(ARB) (HLA B*0801) | Normalized average relative binding affinity(ARB) (H-2 K^k) | Normalized average relative binding affinity(ARB) (HLA B*5801) | Normalized average relative binding affinity(ARB) (HLA B*5802) | Normalized average relative binding affinity(ARB) (HLA A*3001) | Normalized average relative binding affinity(ARB) (HLA B*5301) | Normalized average relative binding affinity(ARB) (HLA B*5101) | Normalized average relative binding affinity(ARB) (HLA A*6802) | Normalized average relative binding affinity(ARB) (HLA B*3501) | Normalized average relative binding affinity(ARB) (HLA A*3201)
XXXNXXXXX [3064.0072] | 0.24 | 0.46 | 0.76 | 0.20 | 0.40 | 0.18 | 0.48 | 0.22 | 0.46 | 0.55 | 0.31 | 0.27 | 0.42 | 0.27 | 0.079 | 0.59
XXXPXXXXX [3064.0073] | 0.48 | 0.22 | 0.67 | 0.13 | 0.15 | 0.15 | 0.34 | 0.41 | 1.0 | 0.50 | 0.59 | 0.023 | 0.55 | 0.37 | 0.11 | 0.095
XXXQXXXXX [3064.0074] | 0.42 | 0.96 | 0.83 | 0.093 | 0.49 | 0.61 | 0.90 | 0.63 | 0.46 | 0.31 | 0.65 | 0.26 | 0.57 | 0.18 | 0.088 | 0.32
XXXRXXXXX [3064.0075] | 0.20 | 0.28 | 0.50 | 0.069 | 0.62 | 0.63 | 0.86 | 0.34 | 0.67 | 0.96 | 0.52 | 0.11 | 0.40 | 0.057 | 0.059 | 0.22
XXXSXXXXX [3064.0076] | 0.28 | 1.0 | 0.78 | 0.14 | 0.58 | 0.83 | 0.48 | 0.28 | 0.74 | 1.0 | 0.76 | 0.44 | 0.92 | 1.0 | 0.090 | 0.26
XXXTXXXXX [3064.0077] | 0.21 | 0.39 | 0.41 | 0.61 | 0.66 | 0.58 | 0.52 | 0.19 | 0.27 | 0.74 | 0.44 | 0.25 | 0.77 | 0.20 | 0.54 | 0.31
XXXVXXXXX [3064.0078] | 0.19 | 0.52 | 0.64 | 1.00 | 0.48 | 0.87 | 0.47 | 0.49 | 0.33 | 0.53 | 0.22 | 0.70 | 0.67 | 0.15 | 0.17 | 0.27
XXXWXXXXX [3064.0079] | 0.040 | 0.39 | 0.63 | 1.0 | 0.54 | 0.56 | 0.68 | 1.0 | 0.33 | 0.72 | 0.45 | 1.0 | 0.82 | 0.56 | 0.32 | 0.29
